# Measured values reported in US9388141B2, “Acylaminocycloalkyl compounds suitable for treating disorders that respond to modulation of dopamine D3 receptor” (AbbVie Deutschland GmbH & Co. KG, priority 2013, dated 2016).
# How the values were obtained:
# [1] = target: T1, human dopamine D3 receptors (Homo sapiens, UniProt P35462); assay: Dopamine D3 receptor binding, [125I]-iodosulpride displacement; details: membranes of HEK-293 cells with human D3 receptors, 0.1 nM [125I]-iodosulpride
# T1 construct: expressed in transfected cells; host or cells: HEK-293
# T1 sequence (P35462 whole entry): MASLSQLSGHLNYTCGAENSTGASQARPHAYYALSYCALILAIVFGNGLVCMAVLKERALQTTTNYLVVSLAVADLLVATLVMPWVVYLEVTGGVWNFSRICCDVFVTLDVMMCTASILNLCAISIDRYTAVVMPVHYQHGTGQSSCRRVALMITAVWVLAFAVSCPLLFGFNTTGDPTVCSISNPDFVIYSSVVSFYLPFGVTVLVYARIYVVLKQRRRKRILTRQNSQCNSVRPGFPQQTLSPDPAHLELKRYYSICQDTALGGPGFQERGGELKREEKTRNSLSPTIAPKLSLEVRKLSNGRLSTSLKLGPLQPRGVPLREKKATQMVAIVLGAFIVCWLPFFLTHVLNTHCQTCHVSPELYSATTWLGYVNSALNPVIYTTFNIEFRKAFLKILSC
# Protocol: (§1) The substance to be tested was either dissolved in methanol/Chremophor® (BASF SE) or in dimethyl sulfoxide and then diluted with water to the desired concentration.
# (§2) Each assay mixture was run in triplicate. • The incubation buffer contained 50 mM tris, 120 mM NaCl, 5 mM KCl, 2 mM CaCl2, 2 mM MgCl2 and 0.1% bovine serum albumin, 10 μM quinolone and 0.1% ascorbic acid (prepared fresh daily). […] Each assay mixture was run in triplicate. • The incubation buffer contained 50 mM tris, 120 mM NaCl, 5 mM KCl, 2 mM CaCl2, 2 mM MgCl2 and 0.1% bovine serum albumin. The buffer was adjusted to pH 7.4 with HCl. c) Measurement and Analysis: • After having been incubated at 25° C. for 60 minutes, the assay mixtures were filtered through a Whatman GF/B glass fiber filter under vacuum using a cell collecting device. The filters were transferred to scintillation viols using a filter transfer system. After 4 ml of Ultima Gold® (Packard) have been added, the samples were shaken for one hour and the radioactivity was then counted in a Beta-Counter (Packard, Tricarb 2000 or 2200CA).
# [2] = target: T2, human dopamine D2L receptors (long isoform) (Homo sapiens, UniProt P14416); assay: Dopamine D2L receptor binding, [125I]-iodospiperone displacement; details: selectivity ratio Ki (D2L)/Ki (D3)
# T2 construct: expressed in transfected cells; host or cells: HEK-293
# T2 sequence (P14416 whole entry, canonical isoform): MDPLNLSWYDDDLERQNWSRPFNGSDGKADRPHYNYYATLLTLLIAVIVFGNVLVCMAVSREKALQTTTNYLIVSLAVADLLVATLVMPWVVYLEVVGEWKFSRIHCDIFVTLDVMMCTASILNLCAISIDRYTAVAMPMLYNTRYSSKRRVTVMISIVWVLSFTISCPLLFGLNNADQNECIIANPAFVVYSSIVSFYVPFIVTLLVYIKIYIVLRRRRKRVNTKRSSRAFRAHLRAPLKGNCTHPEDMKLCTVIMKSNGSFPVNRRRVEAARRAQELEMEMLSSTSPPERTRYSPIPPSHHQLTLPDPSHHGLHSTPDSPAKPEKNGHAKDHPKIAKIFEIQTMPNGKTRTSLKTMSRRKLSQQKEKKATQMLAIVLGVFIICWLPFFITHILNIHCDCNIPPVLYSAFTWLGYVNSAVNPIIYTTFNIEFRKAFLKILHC
# Protocol: as §1, §2
# [3] = Determination of the microsomal half-life / microsomal clearance; format: in vitro ADME; details: human liver microsomes, 0.5 μM test substance, 0.25 mg microsomal protein/ml, pH 7.4, 37° C.
# Protocol: The metabolic stability of the compounds of the invention was determined in the following assay.
# The test substances were incubated in a concentration of 0.5 μM as follows:
# 0.5 μM test substance are preincubated together with liver microsomes from different species (from rat, human or other species) (0.25 mg of microsomal protein/ml) in 0.05 M potassium phosphate buffer of pH 7.4 in microtiter plates at 37° C. for 5 min. The reaction is started by adding NADPH (1 mg/mL). After 0, 5, 10, 15, 20 and 30 min, 50 μl aliquots are removed, and the reaction is immediately stopped and cooled with the same volume of acetonitrile. The samples are frozen until analyzed. The remaining concentration of undegraded test substance is determined by MSMS. The half-life (T1/2) is determined from the gradient of the signal of test substance/unit time plot, it being possible to calculate the half-life of the test substance, assuming first order kinetics, from the decrease in the concentration of the compound with time. The microsomal clearance (mCl) is calculated from mCl=1n2/T1/2/(content of microsomal protein in mg/ml)×1000 [[…]] (modified from references: Di, The Society for Biomoleculur Screening, 2003, 453-462; Obach, DMD, 1999 vol 27. N 11, 1350-1359).
compound,measurement,setting,value
"COCCc1cc(N2CCN(CC[C@H]3C[C@H](NC(=O)C4CCC(O)CC4)C3)CC2)nc(C(C)(C)C)n1 (relative stereo) [Compound 11, N-[trans-3-[2-[4-[2-tert-butyl-6-(2-methoxyethyl)pyrimidin-4-yl]piperazin-1-yl]ethyl]cyclobutyl]-4-hydroxy-cyclohexanecarboxamide]",Ki,[1],< 0.01 µM
same,"D2/D3, Ki (D2L)/Ki (D3)",[2],++ (++>20)
same,Human mCl,[3],+ (+: 20-120 μl min^−1 mg^−1)
"CC(C)(C)c1nc(C2CCC2)cc(N2CCN(CC[C@H]3CC[C@H](NC(=O)C4CC(O)(C(F)(F)F)C4)CC3)CC2)n1 (relative stereo) [Compound 19, N-[trans-4-[2-[4-(2-tert-butyl-6-cyclobutyl-pyrimidin-4-yl)piperazin-1-yl]ethyl]cyclohexyl]-3-hydroxy-3-(trifluoromethyl)cyclobutanecarboxamide]",Ki,[1],< 0.01 µM
same,"D2/D3, Ki (D2L)/Ki (D3)",[2],+ (+>10)
same,Human mCl,[3],+ (+: 20-120 μl min^−1 mg^−1)
"COCCc1cc(N2CCN(CC[C@H]3CC[C@H](NC(=O)C4CC(O)(C(F)(F)F)C4)CC3)CC2)nc(C(C)(C)C)n1 (relative stereo) [Compound 25, N-[trans-4-[2-[4-[2-tert-butyl-6-(2-methoxyethyl)pyrimidin-4-yl]piperazin-1-yl]ethyl]cyclohexyl]-3-hydroxy-3-(trifluoromethyl)cyclobutanecarboxamide]",Ki,[1],< 0.01 µM
same,"D2/D3, Ki (D2L)/Ki (D3)",[2],++ (++>20)
same,Human mCl,[3],∘ (∘: >120 μl min^−1 mg^−1)
"COCCc1cc(N2CCN(CC[C@H]3CC[C@@H](NC(=O)C4CC(O)(C(F)(F)F)C4)CC3)CC2)nc(C(C)(C)C)n1 (relative stereo) [Compound 26, N-[cis-4-[2-[4-[2-tert-butyl-6-(2-methoxyethyl)pyrimidin-4-yl]piperazin-1-yl]ethyl]cyclohexyl]-3-hydroxy-3-(trifluoromethyl)cyclobutanecarboxamide]",Ki,[1],< 0.05 µM
same,"D2/D3, Ki (D2L)/Ki (D3)",[2],+++ (+++>50)
same,Human mCl,[3],++ (++: <20 μl min^−1 mg^−1)
"COCCc1cc(N2CCN(CC[C@H]3CC[C@H](NC(=O)[C@H]4CC[C@H](O)CC4)CC3)CC2)nc(C(C)(C)C)n1 [Compound 2, trans-N-[trans-4-[2-[4-[2-tert-butyl-6-(2-methoxyethyl)pyrimidin-4-yl]piperazin-1-yl]ethyl]cyclohexyl]-4-hydroxy-cyclohexanecarboxamide]",Ki,[1],< 0.01 µM
same,"D2/D3, Ki (D2L)/Ki (D3)",[2],++ (++>20)
same,Human mCl,[3],+ (+: 20-120 μl min^−1 mg^−1)
"COCCc1cc(N2CCN(CC[C@H]3CC[C@@H](NC(=O)[C@H]4CC[C@H](O)CC4)CC3)CC2)nc(C(C)(C)C)n1 [Compound 3, trans-N-[cis-4-[2-[4-[2-tert-butyl-6-(2-methoxyethyl)pyrimidin-4-yl]piperazin-1-yl]ethyl]cyclohexyl]-4-hydroxy-cyclohexanecarboxamide]",Ki,[1],< 0.01 µM
same,"D2/D3, Ki (D2L)/Ki (D3)",[2],++ (++>20)
same,Human mCl,[3],+ (+: 20-120 μl min^−1 mg^−1)
"COCCc1cc(N2CCN(CC[C@H]3CC[C@H](NC(=O)[C@H]4CC[C@@H](O)CC4)CC3)CC2)nc(C(C)(C)C)n1 [Compound 4, cis-N-[trans-4-[2-[4-[2-tert-butyl-6-(2-methoxyethyl)pyrimidin-4-yl]piperazin-1-yl]ethyl]cyclohexyl]-4-hydroxy-cyclohexanecarboxamide]",Ki,[1],< 0.01 µM
same,"D2/D3, Ki (D2L)/Ki (D3)",[2],++ (++>20)
same,Human mCl,[3],∘ (∘: >120 μl min^−1 mg^−1)
"COCCc1cc(N2CCN(CC[C@H]3CC[C@@H](NC(=O)[C@H]4CC[C@@H](O)CC4)CC3)CC2)nc(C(C)(C)C)n1 [Compound 5, Cis-N-[cis-4-[2-[4-[2-tert-butyl-6-(2-methoxyethyl)pyrimidin-4-yl]piperazin-1-yl]ethyl]cyclohexyl]-4-hydroxy-cyclohexanecarboxamide]",Ki,[1],< 0.05 µM
same,"D2/D3, Ki (D2L)/Ki (D3)",[2],++ (++>20)
same,Human mCl,[3],∘ (∘: >120 μl min^−1 mg^−1)
"CC(C)(C)c1nc(C2CCC2)cc(N2CCN(CC[C@H]3CC[C@@H](NC(=O)[C@H]4CC[C@H](O)CC4)CC3)CC2)n1 [Compound 6, trans-N-[cis-4-[2-[4-(2-tert-butyl-6-cyclobutyl-pyrimidin-4-yl)piperazin-1-yl]ethyl]cyclohexyl]-4-hydroxy-cyclohexanecarboxamide]",Ki,[1],< 0.01 µM
same,"D2/D3, Ki (D2L)/Ki (D3)",[2],+++ (+++>50)
same,Human mCl,[3],+ (+: 20-120 μl min^−1 mg^−1)
"COCCc1cc(N2CCN(CC[C@H]3C[C@H](NC(=O)[C@H]4CC[C@H](O)CC4)C3)CC2)nc(C(C)(C)C)n1.O=C(O)C(F)(F)F [Compound 7, Trans-N-[trans-3-[2-[4-[2-tert-butyl-6-(2-methoxyethyl)pyrimidin-4-yl]piperazin-1-yl]ethyl]cyclobutyl]-4-hydroxy-cyclohexanecarboxamide; 2,2,2-trifluoroacetic acid]",Ki,[1],< 0.01 µM
same,"D2/D3, Ki (D2L)/Ki (D3)",[2],+++ (+++>50)
same,Human mCl,[3],+ (+: 20-120 μl min^−1 mg^−1)
"COCCc1cc(N2CCN(CC[C@H]3C[C@@H](NC(=O)[C@H]4CC[C@H](O)CC4)C3)CC2)nc(C(C)(C)C)n1.O=C(O)C(F)(F)F [Compound 8, trans-N-[cis-3-[2-[4-[2-tert-butyl-6-(2-methoxyethyl)pyrimidin-4-yl]piperazin-1-yl]ethyl]cyclobutyl]-4-hydroxy-cyclohexanecarboxamide; 2,2,2-trifluoroacetic acid]",Ki,[1],< 0.01 µM
same,"D2/D3, Ki (D2L)/Ki (D3)",[2],+++ (+++>50)
same,Human mCl,[3],+ (+: 20-120 μl min^−1 mg^−1)
"CC(C)(C)c1nc(C2CCC2)cc(N2CCN(CC[C@H]3C[C@H](NC(=O)[C@H]4CC[C@H](O)CC4)C3)CC2)n1 [Compound 9, Trans-N-[trans-3-[2-[4-(2-tert-butyl-6-cyclobutyl-pyrimidin-4-yl)piperazin-1-yl]ethyl]cyclobutyl]-4-hydroxy-cyclohexanecarboxamide]",Ki,[1],< 0.01 µM
same,"D2/D3, Ki (D2L)/Ki (D3)",[2],+++ (+++>50)
same,Human mCl,[3],+ (+: 20-120 μl min^−1 mg^−1)
"CC(C)(C)c1nc(C2CCC2)cc(N2CCN(CC[C@H]3C[C@@H](NC(=O)[C@H]4CC[C@H](O)CC4)C3)CC2)n1 [Compound 10, Trans-N-[cis-3-[2-[4-(2-tert-butyl-6-cyclobutyl-pyrimidin-4-yl)piperazin-1-yl]ethyl]cyclobutyl]-4-hydroxy-cyclohexanecarboxamide]",Ki,[1],< 0.01 µM
same,"D2/D3, Ki (D2L)/Ki (D3)",[2],+++ (+++>50)
same,Human mCl,[3],+ (+: 20-120 μl min^−1 mg^−1)
"COCCc1cc(N2CCN(CC[C@H]3C[C@@H](NC(=O)[C@H]4CC[C@@H](O)CC4)C3)CC2)nc(C(C)(C)C)n1 [Compound 12, Cis-N-[cis-3-[2-[4-[2-tert-butyl-6-(2-methoxyethyl)pyrimidin-4-yl]piperazin-1-yl]ethyl]cyclobutyl]-4-hydroxy-cyclohexanecarboxamide]",Ki,[1],< 0.05 µM
same,"D2/D3, Ki (D2L)/Ki (D3)",[2],+++ (+++>50)
same,Human mCl,[3],+ (+: 20-120 μl min^−1 mg^−1)
"CC(C)(C)c1nc(C2CCC2)cc(N2CCN(CC[C@H]3CC[C@H](NC(=O)[C@H]4C[C@@H](O)C4)CC3)CC2)n1 [Compound 13, Cis-N-[trans-4-[2-[4-(2-tert-butyl-6-cyclobutyl-pyrimidin-4-yl)piperazin-1-yl]ethyl]cyclohexyl]-3-hydroxy-cyclobutanecarboxamide]",Ki,[1],< 0.01 µM
same,"D2/D3, Ki (D2L)/Ki (D3)",[2],++ (++>20)
same,Human mCl,[3],∘ (∘: >120 μl min^−1 mg^−1)
"CC(C)(C)c1nc(C2CCC2)cc(N2CCN(CC[C@H]3CC[C@H](NC(=O)[C@H]4CC[C@@H](O)CC4)CC3)CC2)n1.O=C(O)C(F)(F)F [Compound 14, Cis-N-[trans-4-[2-[4-(2-tert-butyl-6-cyclobutyl-pyrimidin-4-yl)piperazin-1-yl]ethyl]cyclohexyl]-4-hydroxy-cyclohexanecarboxamide; 2,2,2-trifluoroacetic acid]",Ki,[1],< 0.01 µM
same,"D2/D3, Ki (D2L)/Ki (D3)",[2],++ (++>20)
same,Human mCl,[3],∘ (∘: >120 μl min^−1 mg^−1)
"COCc1cc(N2CCN(CC[C@H]3CC[C@H](NC(=O)[C@H]4C[C@@H](O)C4)CC3)CC2)nc(C(C)(C)C)n1 [Compound 40, cis-N-[trans-4-[2-[4-[2-tert-butyl-6-(methoxymethyl)pyrimidin-4-yl]piperazin-1-yl]ethyl]cyclohexyl]-3-hydroxy-cyclobutanecarboxamide]",Human mCl,[3],+ (+: 20-120 μl min^−1 mg^−1)
